Patent publication US10160705B2, “Class of HDAC inhibitors expands the renal progenitor cells population and improves the rate of recovery from acute kidney injury” (University of Pittsburgh—Of the Commonwealth System of …, priority 2011, dated 2018)
Read-outs that look alike come from different tables or passages of the source.

What was measured:
zebrafish embryos = experiment: Phenotypic screen for edema and survival in zebrafish larvae at 72 hpf; conditions: number of larvae (of 36); 3 μM from 2 hpf, scored at 72 hpf
Experimental: The screen was performed in zebrafish embryos using the National Cancer Institute's Developmental Therapeutics Program (NCI/DTP) Diversity Set I. This library contains 1990 compounds selected by pharmacophore modeling to represent the more than 140,000 small molecules maintained in the NCI/DTP Open Repository. Compounds from the NCI/DTP Diversity Set I were diluted to 10 μM in E3 embryo medium (5 mM NaCl, 0.33 mM CaCl2, 0.33 mM MgSO4, and 0.17 mM KCl) in a final DMSO concentration of 0.5% and arrayed in 96-well plates. Beginning at approximately 2 hpf, embryos were transferred to each well in groups of five using a glass pipette. The plates were incubated at 28.5° C. for 70 hours. Individual wells were then scored for a dominant phenotype, representative of at least four of the five embryos. The primary objective was to identify compounds that caused edema in treated embryos at 72 hpf. Small molecules generating edema were retested once for verification, before obtaining additional compound from the NCI/DTP Open Repository.
PTBA was synthesized as described below. Hydroxyurea and aphidicolin were obtained from Sigma-Aldrich. Groups of 20 to 30 chorionated 2 hpf embryos were arrayed in individual wells of 12-well plates. E3 medium was removed with a glass pipette and replaced with 1.5 ml treatment solutions containing 0.5% DMSO in E3 with or without compound at the reported concentrations. Treatments for all studies were initiated at 2 hpf, except for the temporal studies (FIG. 6) and the HUA studies (FIG. 11). HUA studies were performed as described previously (Zhang, L., et al. Cell cycle progression is required for zebrafish somite morphogenesis but not segmentation clock function. Development 135, 2065-2070, (2008)), with the following modifications. HUA in 0.5% DMSO was added at early gastrulation (5 hpf) and PTBA was subsequently added at late gastrulation (8 hpf) to allow for penetration of the proliferation inhibitors. All embryos were incubated at 28.5° C. until the required developmental stage.
Following 70 hours of treatment (as described above), edemic phenotypes in 72 hpf larvae were scored using a phenotype-based classification system. Wild type: no visible edema or developmental delay. […] Significant effects (p<0.05) on survival were determined by two-tailed Fisher's exact test in comparison with the 0 μM PTBA treatment group.
PTBA and methyl-4-(phenylthio)butanoate were synthesized as described above. 4-(Naphthalen-2-ylthio)butanoic acid (NSC2733) and 3-(phenylthio)benzoic acid (NSC113994), were obtained from the NCI/DTP Open Repository. APHA compound 8, Apicidin, butanoic acid, PBA, 4-phenoxybutanoic acid, 5-phenylpentanoic acid, Scriptaid, TSA, and valproic acid were obtained from Sigma-Aldrich. MS-275 and SAHA were obtained from Cayman Chemical Co. 4-(phenylsulfonyl)butanoic acid was obtained from Matrix Scientific. Tubacin was a gift of Dr. Ralph Mazitschek of the Broad Institute (Cambridge, Mass.). The remaining PTBA analogs were synthesized. Three independent groups of 12 chorionated 2 hpf embryos were arrayed in individual wells of 24-well plates. E3 medium was removed with a glass pipette and replaced with 800 μl treatment solutions containing 0.5% DMSO in E3 with or without compound at the reported concentrations.
Phenotypic screening of PTBA analogs was performed identically to the concentration-response experiments detailed above. Embryos were treated with each PTBA analog from 2 to 72 hpf as described above.

renal progenitor cells = experiment: In situ hybridization for lhx1a expression in 10-somite embryos (renal progenitor cell expansion); format: in vivo; conditions: for responders at 1.5 µM / responders at 3 µM / responders at 0.2 µM / responders at 0.4 µM / responders at 0.8 µM / EC50: Danio rerio; for responders at 0.2 µM: 200 nM, read-out: Expansion of Cells (including repeats* and recounts**) 200 nM; for responders at 0.4 µM: 400 nM, read-out: Expansion of Cells (including repeats* and recounts**) 400 nM; for responders at 0.8 µM: 800 nM, read-out: Expansion of Cells (including repeats* and recounts**) 800 nM; for EC50: first pass EC50 from percent expansion (Excel trendline), average where several experiments; for Lhx1a expansion caused by analog treatment, 200 nM: key: effective (+); partially effective (+/−); ineffective (−); Analogs that killed all embryos at a given concentration before reaching 10 somites are listed as XX; for Lhx1a expansion caused by analog treatment, 3 μM: key: effective (+); partially effective (+/−); ineffective (−); Analogs that killed all embryos at a given concentration before reaching 10 somites are listed as XX; for Lhx1a expansion caused by analog treatment, 400 nM: key: effective (+); partially effective (+/−); ineffective (−); Analogs that killed all embryos at a given concentration before reaching 10 somites are listed as XX; for Lhx1a expansion caused by analog treatment, 800 nM: key: effective (+); partially effective (+/−); ineffective (−); Analogs that killed all embryos at a given concentration before reaching 10 somites are listed as XX
Experimental: PTBA was synthesized as described below. Hydroxyurea and aphidicolin were obtained from Sigma-Aldrich.
In situ hybridization and immunocytochemistry: In situ hybridization was performed as previously described with some modifications.142 Hybridization temperature was 65° C. Embryos were blocked in 2% blocking reagent (Roche) with 5% sheep serum in MAB (100 mM maleic acid and 150 mM NaCl [pH 7.5]). Whole-mount immunocytochemistry with 1:25 mouse anti-α6F antibody (Developmental Studies Hybridoma Bank) and 1:100 Cy3 secondary antibody (Jackson ImmunoResearch) was performed as described previously.108 Embryos were embedded in JB-4 for sectioning per the manufacturer's instructions (Polysciences), sectioned at 5 μm, and mounted with Cytoseal 60 (Richard-Allan Scientific).
The remaining PTBA analogs were synthesized.
In situ hybridization for lhx1a was performed as described above. […] Compounds were classified as effective, partially-effective or ineffective based on comparison to the effects of PTBA at a given concentration.
Testing of the compounds is on-going, but for those tested, Table 6 provides first pass EC50s based upon colormetric in situ hybridizations for the Lhx1a mRNA expression levels. After the procedure is run, in situ hybridization is done for the lhx1 mRNA expression and the number of embryos that show an expanded kidney field is manually counted to establish the percent of embryos showing expansion. Then the EC50 is determined by plotting the percent expansion in Excel, graphing the results and using the trendline function to determine the 50 percent point.

[1] = 1.5 μM from 2 hpf, 10-somite embryos
[2] = 3 μM from 2 hpf, 10-somite embryos
[3] = 1.5 μM from 2 hpf, 10-somite embryos, read-out: lhx1a expansion, percent of treated embryos
[4] = percent of embryos with expanded kidney field, 1.5 μM, read-out: Expansion of Cells (including repeats* and recounts**) 1.5 μM
[5] = percent of embryos with expanded kidney field, 3 μM, read-out: Expansion of Cells (including repeats* and recounts**) 3 μM
[6] = percent of embryos with expanded kidney field

Compound	Dead (zebrafish embryos)	Edemic 1 (E1) (zebrafish embryos)	Edemic 2 (E2) (zebrafish embryos)	Edemic 3 (E3) (zebrafish embryos)	Wild-type (WT) (zebrafish embryos)	Lhx1a expansion caused by analog treatment, 3 μM (renal progenitor cells; [2])	responders at 1.5 µM (renal progenitor cells; [4]) [%]	responders at 3 µM (renal progenitor cells; [5]) [%]	responders at 0.2 µM (renal progenitor cells; [6]) [%]	responders at 0.4 µM (renal progenitor cells; [6]) [%]	responders at 0.8 µM (renal progenitor cells; [6]) [%]	EC50 (renal progenitor cells) [nM]	other results
COC(=O)CCCSc1ccc(Cl)cc1 [UPHD-00021, methyl 4-[(4-chloro-phenyl)sulfanyl]butanoate]	1	10	6	19	0	+	72	97					Lhx1a expansion caused by analog treatment, 1.5 μM (renal progenitor cells; [1]): +/−; responders at 1.5 µM (renal progenitor cells; [3]): 72%
O=C(O)CCCNc1ccccc1 [VNK-I-300, 4-(phenylamino)butanoic acid]	0	1	0	0	35	−							
O=C(O)c1cccc(Sc2ccccc2)c1 [3-(phenylthio)benzoic acid, reference compound]	0	34	0	0	2	−							lhx1a expansion, percent of treated embryos (renal progenitor cells; [2]): no expansion
COC(=O)CCCSc1ccc(C)cc1 [UPHD-00026, methyl 4-[(4-methyl-phenyl)sulfanyl]butanoate]	11	0	2	23	0	+	100	100	3	14	49		Lhx1a expansion caused by analog treatment, 200 nM (renal progenitor cells; 200 nM from 2 hpf, 10-somite embryos): −; Lhx1a expansion caused by analog treatment, 400 nM (renal progenitor cells; 400 nM from 2 hpf, 10-somite embryos): −; Lhx1a expansion caused by analog treatment, 800 nM (renal progenitor cells; 800 nM from 2 hpf, 10-somite embryos): +; Lhx1a expansion caused by analog treatment, 1.5 μM (renal progenitor cells; [1]): +; responders at 1.5 µM (renal progenitor cells; [3]): 100%
O=C(O)CCCCc1ccccc1 [5-phenylpentanoic acid, reference compound]	0	0	0	0	36	−							lhx1a expansion, percent of treated embryos (renal progenitor cells; [2]): no expansion
O=C(CCCCCN1C(=O)c2cccc3cccc(c23)C1=O)NO [Scriptaid, reference compound]	0	1	0	0	35	+/−							responders at 3 µM (renal progenitor cells; 3 μM from 2 hpf, 10-somite embryos, read-out: lhx1a expansion, percent of treated embryos): 39%
O=C(CCCCSc1ccccc1)NO [UPHD-00035, N-hydroxy-5-(phenyl-sulfanyl)pentanamide]							0	21.1	25	10	0	> 3000	
COC(=O)c1ccc(CSc2ccccc2)cc1 [UPHD-00045, methyl 4[(phenyl-sulfanyl)methyl]benzoate]							0	17			17	> 3000	
Nc1ccccc1NC(=O)CCCCCCSc1ccc(F)cc1 [UPHD-00043, N-(2-aminophenyl)-7-[(4-fluoro-phenyl)sulfanyl]heptanamide]								57	0	15		3000	
COC(=O)CCCCCCSc1ccc(F)cc1 [UPHD-00039, methyl 7-[(4-fluor-phenyl)sulfanyl]heptanoate]							35	11			20	> 3000	
Nc1ccccc1NC(=O)CCCCCSc1ccccc1 [UPHD-00049, N-(2-aminophenyl)-6-(phenylsulfanyl)hexanamide]							95	100	5	35	60	890	
COC(=O)CCCCSc1ccc(F)cc1 [UPHD-00032, methyl 5-[(4-fluoro-phenyl)sulfanyl]pentanoate]							0	0			0	> 3000	
O=C(NO)c1ccc(CCSc2ccccc2)cc1 [UPHD-00061, N-hydroxy-4-[2-(phenyl-sulfanyl)ethyl]benzamide]							6	37	5.5	0	0	> 3000	
O=C(CCCCCSc1ccccc1)NO [UPHD-00050, N-hydroxy-6-(phenyl-sulfanyl)hexanamide]							0	0			0	> 3000	
COC(=O)CCCCSc1ccccc1 [UPHD-00033, methyl 5-(phenylsulfanyl)pentanoate]							5	11			0	> 3000	
Cn1c(SCCCCCC(=O)Nc2ccccc2N)nc2ccccc21 [UPHD-00081, N-(2-aminophenyl)-6-[(1-methyl-1H-1,3-benzodiazol-2-yl)sulfanyl]hexanamide]							20	32	0	10	10	> 3000	
Nc1ccccc1NC(=O)CCCCCS(=O)(=O)c1ccc2ccccc2c1 [UPHD-00066, N-(2-aminophenyl)-6-(naphthalene-2-sulfonyl)hexanamide]							11	10	0	0	5	> 3000	
O=C(CCCCCCSc1ccc(F)cc1)NO [UPHD-00042, 7-[(4-fluoro-phenyl)sulfanyl]-N-hydroxyheptanamide]												> 3000	
Nc1ccccc1NC(=O)CCCSc1ccccc1 [UPHD-00036, N-(2-aminophenyl)-4-(phenylsulfanyl)butanamide]							85	100			45		
O=C(CCCCCSc1ccc2ccccc2c1)NO [UPHD-00059, N-hydroxy-6-(naphthalen-2-ylsulfanyl)hexanamide]							16	33	0	5	12	> 3000	
